Experiments:
[1] = tested on: FANCD2; assay: Immunoblot of FANCD2 monoubiquitination; format: cell-based, human; details: cisplatin-treated cells, same doses as Protoapigenone (I-1)
Text: Understanding the mechanism by which the benzopyran-4-one derivatives compounds cause chromosomal breakages (FIG. 1) and other abnormalities might aid in identifying their targets. We hypothesized that genes with functions associated with DNA damage checkpoints and/or DNA repair might be targeted by benzopyran-4-one derivatives. To test this hypothesis, we assessed the effects of benzopyran-4-one derivatives on DDR induced by H2O2. […] In response to DNA double-strand breaks (DSBs), FANCD2 is known to be monoubiquitinated on K561 (FANCD2-Ub) in an ATR-dependent manner to stimulate repair (Andreassen P R, et al. Genes Dev 2004). […] Collectively, these findings indicate that benzopyran-4-one derivatives can modify ATR signaling after various types of DNA damage.
Inhibition of the checkpoint and repair mechanisms leads to chemosensitization in cancers. […] We further treated individual cells with cisplatin in combination with several varying doses of benzopyran-4-one derivatives, and counted survival colonies to determine their ability to survive after cisplatin-induced damage. […]
Cell lysate preparations, gel electrophoresis, and immunoblotting were performed as previously described (23). The binding of primary antibodies were detected by horseradish peroxidase-coupled secondary antibodies (Jackson ImmunoResearch) followed by enhanced chemiluminescence (ECL) (Millipore). […]

[2] = tested on: host cell; assay: MTT assay of host cell toxicity; format: cell-based; details: 1 μM, 6 hours treatment plus 18 hours fresh medium
Method: To understand whether or not inhibition of the virus infection is followed by the host cell toxicity caused by the compound treatments, we performed an MTT [3-(4,5-cimethylthiazol-2-yl)-2,5-diphenyl tetrazolium bromide] assay in cells untreated or treated with indicated compounds for 6 hours. After that, the compound is washed out and the MTT assay was tested after an additional 18 hours of fresh culture medium incubation, in a way similar to the protocol shown in FIG. 26. 0.5 mg/mL of MTT contained media was added to cells at the end of the experiment and incubated for 3 hours. Then, the supernatant was removed and the formazone crystals solubilized using 100 μl of DMSO and the absorbance at 570 nm was read using a microplate reader. […] However, the virus inhibition effect of 50-99% is also shown at this dose of Compound II-1.

## O=C1C=CC(O)(c2cc(=O)c3c(ccc4ccccc43)o2)C=C1 [Compound II-1, 3-(1-hydroxy-4-oxo-cyclohexa-2,5-dienyl)-1H-benzo[f]chromen-1-one]
[1]
  FANCD2 monoubiquitination and protein stability: not only inhibits monoubiquitination of FANCD2 but also affects FANCD2 protein stability
[2]
  Decrease of surviving cells: 5-10%

From patent US11413267B2, “Methods and compositions for inhibition of ATR and FANCD2 activation” (priority 2012, dated 2022)
